From US20260285850A1, “SUBSTITUTED OXAZOLIDINONES AND IMIDAZOLINONES AS HERBICIDES” (FMC CORPORATION, priority 2023, published 2026)

Assays:
Format in all cases: in vivo
[1] = system: barnyardgrass (Echinochloa crus-galli); assay: Test A preemergence soil spray, visual injury rating 0-100; settings: 10 days, 0 = no effect, 100 = complete control
Method in brief: (§1)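 Plants were grown in a loam soil-sand blend and treated with test chemical in a non-phytotoxic solvent mixture containing surfactant, either sprayed on soil preemergence or applied postemergence to 2-10 cm plants. After 10 days in a greenhouse, injury was scored visually against untreated controls, 0 meaning no effect and 100 complete control.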

[2] = system: blackgrass (Alopecurus myosuroides); assay: as above; settings: 10 days, 0 = no effect, 100 = complete control
Method in brief: as §1

corn (Zea mays) [3] = assay: as above; settings: 10 days, 0 = no effect, 100 = complete control
Method in brief: as §1

[4] = system: green foxtail (Setaria viridis); assay: as above; settings: 10 days, 0 = no effect, 100 = complete control
Method in brief: as §1

kochia (Bassia scoparia) [5] = assay: as above; settings: 10 days, 0 = no effect, 100 = complete control
Method in brief: as §1

[6] = system: oat, wild (wild oat, Avena fatua); assay: as above; settings: 10 days, 0 = no effect, 100 = complete control
Method in brief: as §1

[7] = system: palmer (palmer amaranth, palmer pigweed, Amaranthus palmeri); assay: as above; settings: 10 days, 0 = no effect, 100 = complete control
Method in brief: as §1

[8] = system: ragweed (common ragweed, Ambrosia artemisiifolia); assay: as above; settings: 10 days, 0 = no effect, 100 = complete control
Method in brief: as §1

[9] = system: ryegrass, Italian (italian ryegrass, Lolium multiflorum); assay: as above; settings: 10 days, 0 = no effect, 100 = complete control
Method in brief: as §1

soybean (Glycine max) [10] = assay: as above; settings: 10 days, 0 = no effect, 100 = complete control
Method in brief: as §1

[11] = system: wheat (Triticum aestivum); assay: as above; settings: 10 days, 0 = no effect, 100 = complete control
Method in brief: as §1

[12] = system: barnyardgrass (Echinochloa crus-galli); assay: Test A postemergence application, visual injury rating 0-100; settings: 10 days
Method in brief: as §1

[13] = system: blackgrass (Alopecurus myosuroides); assay: as above; settings: 10 days
Method in brief: as §1

corn (Zea mays) [14] = assay: as above; settings: 10 days
Method in brief: as §1

[15] = system: galium (catchweed bedstraw, Galium aparine); assay: as above; settings: 10 days
Method in brief: as §1

[16] = system: green foxtail (Setaria viridis); assay: as above; settings: 10 days
Method in brief: as §1

[17] = system: horseweed (Erigeron canadensis); assay: as above; settings: 10 days
Method in brief: as §1

kochia (Bassia scoparia) [18] = assay: as above; settings: 10 days
Method in brief: as §1

[19] = system: oat, wild (wild oat, Avena fatua); assay: as above; settings: 10 days
Method in brief: as §1

[20] = system: palmer (palmer amaranth, palmer pigweed, Amaranthus palmeri); assay: as above; settings: 10 days
Method in brief: as §1

[21] = system: ragweed (common ragweed, Ambrosia artemisiifolia); assay: as above; settings: 10 days
Method in brief: as §1

[22] = system: ryegrass, Italian (italian ryegrass, Lolium multiflorum); assay: as above; settings: 10 days
Method in brief: as §1

soybean (Glycine max) [23] = assay: as above; settings: 10 days
Method in brief: as §1

[24] = system: wheat (Triticum aestivum); assay: as above; settings: 10 days
Method in brief: as §1

[25] = system: barnyardgrass (Echinochloa crusgalli); assay: Test B flooded paddy test, visual plant response rating 0-100; settings: 250 g ai/ha, Flood, applied to paddy water, evaluated after 13 days
Method in brief: (§2)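 2-leaf plants; flood 3 cm over soil; compound dosed into paddy water; depth kept constant; greenhouse 13 d; visual scoring vs controls. Dash = no result.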

[26] = system: ducksalad (Heteranthera limosa); assay: as above; settings: 250 g ai/ha, Flood, applied to paddy water, evaluated after 13 days
Method in brief: as §2

rice (Oryza sativa) = assay: as above; settings: 250 g ai/ha, Flood, applied to paddy water, evaluated after 13 days
Method in brief: as §2

[27] = system: sedge, umbrella (small-flower umbrella sedge, Cyperus difformis); assay: as above; settings: 250 g ai/ha, Flood, applied to paddy water, evaluated after 13 days
Method in brief: as §2

[28] = 31 g ai/ha, postemergence, 0 = no effect, 100 = complete control
[29] = Postemergence, 125 g ai/ha, 0 is no effect, 100 is complete control

SMILES: COC(=O)C1C=CC(NC(=O)C2(C)CN(c3cc(F)cc(Cl)c3)C(=O)O2)C1 (stereo not shown) [Compound 17]
- Barnyardgrass plant response rating (0-100) ([1]; 31 g ai/ha): 80
- Barnyardgrass plant response rating (0 to 100 scale) ([1]; 125 g ai/ha): 100
- Blackgrass plant response rating (0-100) ([2]; 31 g ai/ha): 20
- Blackgrass plant response rating (0 to 100 scale) ([2]; 125 g ai/ha): 70
- Corn plant response rating (0-100) (corn (Zea mays) [3]; 31 g ai/ha): 20
- Corn plant response rating (0 to 100 scale) (corn (Zea mays) [3]; 125 g ai/ha): 80
- Foxtail, Green plant response rating (0-100) ([4]; 31 g ai/ha): 50
- Foxtail, Green plant response rating (0 to 100 scale) ([4]; 125 g ai/ha): 100
- Kochia plant response rating (0-100) (kochia (Bassia scoparia) [5]; 31 g ai/ha): 50
- Kochia plant response rating (0 to 100 scale) (kochia (Bassia scoparia) [5]; 125 g ai/ha): 100
- Oat, Wild plant response rating (0-100) ([6]; 31 g ai/ha): 10
- Oat, Wild plant response rating (0 to 100 scale) ([6]; 125 g ai/ha): 80
- Amaranth, Palmer plant response rating (0-100) ([7]; 31 g ai/ha): 70
- Amaranth, Palmer plant response rating (0 to 100 scale) ([7]; 125 g ai/ha): 100
- Ragweed plant response rating (0-100) ([8]; 31 g ai/ha): 20
- Ragweed plant response rating (0 to 100 scale) ([8]; 125 g ai/ha): 40
- Ryegrass, Italian plant response rating (0-100) ([9]; 31 g ai/ha): 90
- Ryegrass, Italian plant response rating (0 to 100 scale) ([9]; 125 g ai/ha): 90
- Soybean plant response rating (0-100) (soybean (Glycine max) [10]; 31 g ai/ha): 0
- Soybean plant response rating (0 to 100 scale) (soybean (Glycine max) [10]; 125 g ai/ha): 80
- Wheat plant response rating (0-100) ([11]; 31 g ai/ha): 80
- Wheat plant response rating (0 to 100 scale) ([11]; 125 g ai/ha): 90
- Barnyardgrass plant response rating (0-100) [12, 28]: 100
- Barnyardgrass plant response rating (0 to 100 scale) [12, 29]: 100
- Blackgrass plant response rating (0-100) [13, 28]: 60
- Blackgrass plant response rating (0 to 100 scale) [13, 29]: 90
- Corn plant response rating (0-100) (corn (Zea mays) [14]; [28]): 70
- Corn plant response rating (0 to 100 scale) (corn (Zea mays) [14]; [29]): 100
- Galium plant response rating (0-100) [15, 28]: 80
- Galium plant response rating (0 to 100 scale) [15, 29]: 80
- Foxtail, Green plant response rating (0-100) [16, 28]: 80
- Foxtail, Green plant response rating (0 to 100 scale) [16, 29]: 90
- Horseweed plant response rating (0-100) [17, 28]: 30
- Horseweed plant response rating (0 to 100 scale) [17, 29]: 70
- Kochia plant response rating (0-100) (kochia (Bassia scoparia) [18]; [28]): 60
- Kochia plant response rating (0 to 100 scale) (kochia (Bassia scoparia) [18]; [29]): 70
- Oat, Wild plant response rating (0-100) [19, 28]: 90
- Oat, Wild plant response rating (0 to 100 scale) [19, 29]: 90
- Amaranth, Palmer plant response rating (0-100) [20, 28]: 70
- Amaranth, Palmer / Pigweed, Palmer plant response rating (0 to 100 scale) [20, 29]: 90
- Ragweed plant response rating (0-100) [21, 28]: 30
- Ragweed plant response rating (0 to 100 scale) [21, 29]: 80
- Ryegrass, Italian plant response rating (0-100) [22, 28]: 90
- Ryegrass, Italian plant response rating (0 to 100 scale) [22, 29]: 90
- Soybean plant response rating (0-100) (soybean (Glycine max) [23]; [28]): 50
- Soybean plant response rating (0 to 100 scale) (soybean (Glycine max) [23]; [29]): 90
- Wheat plant response rating (0-100) [24, 28]: 90
- Wheat plant response rating (0 to 100 scale) [24, 29]: 90
- Plant response rating, Barnyardgrass (0 to 100 scale, 0 is no effect and 100 is complete control) [25]: 70
- Plant response rating, Ducksalad (0 to 100 scale, 0 is no effect and 100 is complete control) [26]: 70
- Plant response rating, Rice (0 to 100 scale, 0 is no effect and 100 is complete control) (rice (Oryza sativa)): 10
- Plant response rating, Sedge, Umbrella (0 to 100 scale, 0 is no effect and 100 is complete control) [27]: 60
